From patent publication US7285555B2, “6-aryl-7-halo-imidazo[1,2-a]pyrimidines as anticancer agents” (Wyeth Holdings Corporation, priority 2003, dated 2007)

Experiments:
[1] = test system: MAP-rich tubulin; test: Tubulin polymerization test procedure with MAP-rich tubulin; type: biochemical, bovine; settings: MAP-rich tubulin with 1 mM GTP, compound 0.3 μM, at 20 min
Protocol: (§1) Medium is RPMI-1640 with L-glutamine, supplemented with 10% heat-inactivated fetal calf serum, 100 units/mL penicillin, and 100 μg/mL streptomycin (Gibco, Grand Island, N.Y.). Microtubule-associated protein (MAP)-rich tubulin, containing about 70% tubulin and 30% MAPs (#ML113), and highly purified tubulin (>99% pure, #TL238), both from bovine brain, are obtained from Cytoskeleton, Inc., Denver, Colo. PEM buffer (80 mM piperazine-N,N′-bis[2-ethanesulfonic acid], pH 6.9, 1 mM ethylene glycol-bis(β-aminoethyl ether)-N,N,N′,N′-tetraacetic acid, 1 mM magnesium chloride) and guanosine 5′-triphosphate (GTP) are also obtained from Cytoskeleton. [^3H]paclitaxel, specific activity 14.7 Ci/mmol, is purchased from Moravek Biochemicals (Brea, Calif.). [^3H]vinblastine, specific activity 9.60 Ci/mmol and MicroSpin G-50 columns are obtained from Amersham Biosciences (Piscataway, N.J.). […] Other reagents are obtained from Sigma (St. Louis, Mo.).
MAP-rich tubulin is dissolved in ice-cold PEM buffer containing 1 mM GTP (GPEM buffer) at a concentration of 1.3 mg/mL. The solution is centrifuged at top speed in an Eppendorf model 5415C microcentrifuge (Brinkmann Instruments, Westbury, N.Y.) for 10 min at 40 immediately before use. The tubulin solution is added to wells of a ½-area 96-well plate (Costar No. 3696, Corning, Inc., Corning, N.Y.) already containing the compounds of interest. Each compound is tested in duplicate at a final concentration of 0.3 μM in a volume of 110 μL per well. The final DMSO concentration in all wells is 0.3%. Control reactions, which receive compound solvent only, are done in quadruplicate. The plate is put in a SpectraMax Plus plate reader (Molecular Devices Corp. Sunnyvale, Calif.) thermostated at 240 and the absorbance of each well at 340 nm, a measure of the appearance of turbidity due to tubulin polymer formation, is determined every minute for 60 minutes. The absorbance at time 0 for each well is subtracted from each of the subsequent absorbance readings for that well, and then the duplicates are averaged.
In this assay, control reactions with MAP-rich tubulin show an S-shaped absorbance profile characterized by three phases: first, a lag phase during which no change in absorbance occurs; second, a polymerization phase in which absorbance increases; and third, a plateau phase in which absorbance has reached a maximum and little or no further change occurs. Polymerization enhancers such as paclitaxel and docetaxel shorten or eliminate the lag phase, increase the rate of the polymerization phase, and often increase the height of the plateau. […] This has been expressed quantitatively in Table 6 by dividing the mean A340 of each sample at 20 min by the mean A340 of the control at 20 min to give a fold enhancement over control. […]

[2] = test system: pure tubulin; test: Tubulin polymerization test procedure with pure tubulin; type: biochemical, bovine; settings: pure tubulin without added GTP
Protocol: as §1
The procedure with pure tubulin is similar except for the following changes. […] The supernatant after centrifugation is dispensed to a ½-area 96-well plate already containing compounds. Each compound is tested in duplicate at a final concentration of 24.3 μM. The plate reader μs thermostated at 35°.

[3] = test system: highly purified tubulin (tubulin heterodimer); test: Competitive binding test procedure, [3H]vinblastine; parameters: species or system bovine; settings: competitor 100 μM, [3H]vinblastine 100 nM
Protocol: as §1
(§2) The binding of examples of this invention to highly purified tubulin is studied by competitive inhibition methods. […] To study possible competition at the taxane site, on the other hand, polymerized tubulin (microtubules) is used because paclitaxel binds preferentially to microtubules.
(§3) Highly purified tubulin is dissolved in PEM buffer without GTP and used at a final concentration of 1.0 to 1.3 mg/ml (10 to 13 μM). […] These solutions are incubated at 240 for 1 hr and then applied to MicroSpin G-50 columns which are centrifuged for 2 min at 3000 rpm in an Eppendorf 5415C microfuge. An aliquot of each column effluent (containing tubulin and bound radioligand) is mixed with scintillation fluid and counted in a liquid scintillation spectrometer. […] Quadruplicates are averaged, and the ability of the competitor to inhibit the binding of the radioligand is expressed as a percentage of control binding in the absence of any competitor.

[4] = test system: highly purified tubulin (tubulin heterodimer); test: Competitive binding test procedure, [3H]colchicine; parameters: species or system bovine; settings: competitor 100 μM, [3H]colchicine 50 nM
Protocol: as §1, §2, §3

[5] = test system: polymerized tubulin (microtubules); test: Competitive binding test procedure, [3H]paclitaxel; parameters: species or system bovine; settings: competitor 20 μM, [3H]paclitaxel 2.1 μM
Protocol: as §1, §2
For competition with [^3H]paclitaxel, highly purified tubulin is dissolved in PEM buffer containing 0.75 M glutamate and 25 μM dideoxy-GTP; final protein concentration is 0.25 to 0.35 mg/mL (2.5 to 3.5 μM). These conditions foster the rapid formation of short, stable microtubule polymers (Hamel, E., del Campo, A. A., and Lin, C. M. Stability of tubulin polymers formed with dideoxyguanosine nucleotides in the presence and absence of microtubule-associated proteins. J. Biol. Chem., 259: 2501-2508, 1984). […] The reactions are then centrifuged at top speed in an Eppendorf 5415C microfuge for 20 min at room temperature in order to pellet the microtubule protein. Triplicate aliquots of each supernatant are mixed with scintillation fluid and counted in a liquid scintillation spectrometer. From the amount of radioactivity in the supernatants and the measured total starting radioactivity, the amount of [^3H]paclitaxel bound to pelleted microtubule protein is calculated. The ability of each competitor to inhibit radioligand binding to pelleted protein is expressed as a percent of controls without any competitor.

[3H]Vinblastine binding, Mean, percent of binding to control without competitor [3]: 5%
[3H]Colchicine binding, Mean, percent of binding to control without competitor [4]: 99%
[3H]Paclitaxel binding, Mean, percent of binding to control without competitor [5]: 22%
Structure (SMILES): CC[C@]1(O)C[C@H]2CN(CCc3c([nH]c4ccccc34)[C@@](C(=O)OC)(c3cc4c(cc3OC)N(C=O)[C@H]3[C@@](O)(C(=O)OC)[C@H](OC(C)=O)[C@]5(CC)C=CCN6CC[C@]43[C@@H]65)C2)C1 [Vincristine, reference compound]
A340 Compound / A340 Control (fold enhancement over control) [1]: 0.5
polymerization of pure tubulin without GTP (in words) [2]: no activity
